Experiments:
AR121Q mice = assay: Pilot preclinical trial in AR121Q (SBMA) mice; format: in vivo, mouse; conditions: male SBMA mice; 50 mg/kg intraperitoneally three times per week, 3 to 8 weeks of age
Protocol: To determine the efficacy of TA and/or MEPB in a mouse model of SBMA, we first performed a pilot study. Five mice were assigned to each drug treatment group: 50 mg/kg TA, 50 mg/kg MEPB, or vehicle (1% DMSO in corn oil). Drug identities were coded to ensure investigator blinding, and drugs were administered three times per week (Monday, Wednesday, and Friday) by intraperitoneal injection from 3 to 8 weeks of age. At 8 weeks, all mice were sacrificed and tissues were collected for pathologic analysis. To fully characterize the efficacy of MEPB in SBMA mice, a large-scale, multi-dose preclinical trial was performed. A power analysis (Table 1) was performed based on the pilot study data to determine the adequate number of mice required for 80% power. At least 10 mice were assigned to each drug treatment group: 50 mg/kg MEPB, 100 mg/kg MEPB, and vehicle (1% DMSO in corn oil). Drug identities were coded to ensure investigator blinding, and drugs were administered three times per week (Monday, Wednesday, and Friday) by intraperitoneal injections from 4 weeks until 30 weeks of age.
Body weight, rotarod activity, and grip strength data were collected weekly. Footprint analysis and clasping phenotype were assessed at 7 and 8 weeks of age. Body weight was measured using a standard laboratory scale (Fisher Scientific). Rotarod activity analysis was performed on an accelerating rotarod apparatus (IITC Life Science) using a two-day, weekly protocol. Mice were trained on the first day with one session set at 4 rpm for 5 min. The following day, mice were placed on the apparatus, rotation speed was set to accelerate from 4-40 rpm at a rate of 0.1 rpm/s, and the latency to fall was recorded for four separate trials per mouse. Mice were given a 15-min rest period between each trial. Grip strength was measured using a grip strength meter (Bioseb). Grip strength was measured as grams of force in six repeated measurements for forepaws and hindpaws of each animal. To perform gait/footprint analysis, the forepaws and hindpaws of each animal were dipped in red and blue, respectively, water-soluble, non-toxic paint. The animal was then placed in a 70-cm long tunnel lined on the bottom with Whatman filter paper, the entrance was sealed, and the animal was allowed to walk through one time. Footprints were scanned and analyzed with Image J for stride length and forepaw/hindpaw overlap^41. To determine clasping phenotype, mice were recorded using an Apple iPod camera (iOS version 6.1.6) for approximately 60 seconds and still frames were extracted using ImageJ.
A separate cohort of five mice per treatment group was generated for pathologic and biochemical analysis. Mice were anesthetized by isoflurane inhalation and transcardially perfused with either PBS for frozen tissue samples or 10% formalin for fixed tissue samples. Selected tissues (brain, spinal cord, gastrocnemius/soleus muscle, testes, and liver) were dissected and either snap-frozen in liquid nitrogen or processed for paraffin embedding/sectioning. Tissue sections were stained with hematoxylin and eosin, toluidine blue, or Gomori trichrome to ascertain overall morphology and pathologic changes. To determine AR staining and colocalization patterns, tissue sections were stained with anti-AR (N20, Santa Cruz), anti-polyQ (5TF1-1C2, EMD Millipore), or anti-ubiquitin (Cell Signaling Technology) antibodies. To quantify type I and type II myofibers, hindlimb tissue sections were stained with myosin heavy chain-slow twitch and myosin heavy chain-fast twitch antibodies (Leica Biosystems), respectively. For the purposes of counting ChAT-positive neurons, three stepped sections separated by 50 μm were analyzed for the cervical, thoracic, and lumbosacral areas of spinal cords. The slides contained three to six tissue sections at each level and were labeled with an anti-ChAT antibody (EMD Millipore). […]

[1] = tested on: flies expressing human AR52Q in pan-neuronal tissues (ELAV>UAS-AR52Q); assay: Viability of SBMA flies (rescue of DHT-induced lethality); format: in vivo, Drosophila; conditions: flies reared on food containing 1 mM DHT and compound (TA, MEPB 0 to 400 μM)
Source text: UAS-AR52Q, UAS-AR52Q-K720A, and UAS-AR66Q-E897K fly stocks were generated as previously described^8. Fly stocks were crossed to various GAL4 driver lines (ELAV-GAL4 for pan-neuronal, OK371-GAL4 for motor neuron, GMR-GAL4 for eye) to induce expression of the AR transgene in a tissue-specific manner in fly vials containing fly food with either vehicle (1% ethanol +/−0.1% DMSO) or drugs. Upon the presence of progeny, parental flies were removed, and F1 flies were scored for phenotypic analysis. Viability was determined as previously described^40. Briefly, the population frequency of adult F1 SBMA flies (ELAV>UAS-AR52Q or OK371>UAS-AR52Q) and control flies (GAL4-ELAV; CyO-GFP) were determined by the presence or absence of the CyO phenotypic marker. At least three independent biological replicates (F0 crosses) were performed with new drug/food preparations for each treatment group, and a total of at least 50 flies were scored for each treatment group. To determine locomotor activity of SBMA flies, adult F1 flies (OK371>UAS-AR52Q) reared on food containing vehicle or drug were allowed to walk for 90 seconds in one well of a 12-well tissue culture plate while video was recorded using a Leica M205C stereomicroscope and Leica DFC320 digital camera. Videos were recorded for at least 15 flies per treatment group. Tracing of fly movement and analysis of displacement and velocity were performed using ImageJ software. Preparation and staining of larval neuromuscular junctions and ventral ganglions were performed as previously described^8.

| SMILES | body weight (AR121Q mice) | gait and hindlimb clasping (AR121Q mice) | grip strength (AR121Q mice) | pathologic appearance of skeletal muscle and spinal cord degeneration (AR121Q mice) | rotarod activity (AR121Q mice) | survival (AR121Q mice) | SBMA fly viability [1] | any measurements of SBMA-associated degeneration (AR121Q mice) |
| --- | --- | --- | --- | --- | --- | --- | --- | --- |
| Cc1ccc(OCCn2c(SCCOc3ccccc3)nc3ccccc32)cc1 [MEPB, 1-[2-(4-methylphenoxy)ethyl]-2-[(2-phenoxyethyl)sulfanyl]-1H-benzimidazole] | significantly improved | improved gait and hindlimb clasping | significantly improved | qualitatively recovered | significantly improved | no significant change in survival | significantly increased SBMA fly viability in a dose-dependent manner |  |
| Cc1c(Cl)cccc1Nc1ccccc1C(=O)O [TA, tolfenamic acid] |  |  |  |  |  |  | significantly increased SBMA fly viability in a dose-dependent manner | did not significantly alter any measurements of SBMA-associated degeneration |
